Assay results taken from patent US11214803B2, “Modulators of YAP1 expression” (Ionis Pharmaceuticals, Inc., priority 2019, dated 2022).
Strand notation (5' to 3'): a small letter for the sugar, then the base; units joined by * are phosphorothioate-linked, units joined directly phosphodiester-linked; [ ] holds rarer units or linkages, { } end groups; capitals alone tell only the bases. e = 2'-O-(2-methoxyethyl) (MOE); k = constrained ethyl (cEt); [5mC] = 5-methylcytosine; d = 2'-deoxy (DNA); m = 2'-O-methyl

Assays:
[1] = Tolerability in Balb/c mice, plasma chemistry markers (Example 14); assay type: in vivo; settings: male Balb/c mice, 50 mg/kg s.c. twice a week for four weeks (8 treatments), day 27
Procedure: Balb/c mice were treated with modified oligonucleotides selected from studies described above and evaluated for changes in the levels of various plasma chemistry markers.
Groups of male Balb/c mice at 5-6 weeks of age (obtained from Taconic) were injected subcutaneously twice a week for four weeks (for a total of 8 treatments) with 50 mg/kg of modified oligonucleotides. One group of male Balb/c mice was injected with PBS. Mice were euthanized on day 27 post start of treatment (24 hours following the final administration).

[2] = system: Yap1 mRNA; assay: Dose-dependent inhibition of human Yap1 in A-431 cells (Example 7, 10,000 cells per well, RTS36584); assay type: cell-based; settings: free uptake; for Yap1 mRNA, % UTC: A-431 cells 10,000 cells per well, 48 hours
Outline: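 A-431 cells at 10,000 per well received modified oligonucleotides by free uptake at several doses. After about 48 hours, Yap1 mRNA was quantified with primer-probe set RTS36584, normalized to RIBOGREEN total RNA and expressed as % untreated control. IC50 came from linear regression on a log/linear plot.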

[3] = Tolerability in Balb/c mice, body and organ weights (Example 14); assay type: in vivo; settings: male Balb/c mice, 50 mg/kg s.c. twice a week for four weeks (8 treatments); for Kidney weight / Liver weight / Spleen weight: end of study (day 27); for body weight: measured on day 25
Procedure: Groups of male Balb/c mice at 5-6 weeks of age (obtained from Taconic) were injected subcutaneously twice a week for four weeks (for a total of 8 treatments) with 50 mg/kg of modified oligonucleotides. One group of male Balb/c mice was injected with PBS. […]
Modified oligonucleotides that caused any changes in organ weights outside the expected range for modified oligonucleotides were excluded from further studies.

[4] = system: Yap1 mRNA; assay: Dose-dependent inhibition of human Yap1 in SNU-449 cells (Example 9, RTS36584); assay type: cell-based; settings: free uptake; for % UTC (Yap1 mRNA): approximately 48 hours; for IC50: linear regression on a log/linear plot
Outline: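 SNU-449 cells (10,000/well) took up modified oligonucleotides by free uptake at a range of doses for about 48 h. Yap1 mRNA was quantified with primer-probe set RTS36584, normalised to RIBOGREEN total RNA and expressed as % untreated control; IC50 from linear regression on log/linear plot.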

[5] = Tolerability in CD-1 mice, plasma chemistry markers (Example 15); assay type: in vivo; settings: male CD-1 mice, 50 mg/kg s.c. twice a week for four weeks (8 treatments), day 26
Procedure: CD-1 mice were treated with modified oligonucleotides selected from studies described above and evaluated for changes in the levels of various plasma chemistry markers.
Groups of four male CD-1 mice at 4-5 weeks of age (obtained from Charles River) were injected subcutaneously twice a week for four weeks (for a total of 8 treatments) with 50 mg/kg of modified oligonucleotides. One group of male CD-1 mice was injected with PBS. Mice were euthanized on day 26 post start of treatment (24 hrs following the final administration).

[6] = system: Yap1 mRNA; assay: Inhibition of human Yap1 mRNA in SNU449 hepatocellular carcinoma xenograft tumors (Example 26); assay type: in vivo; settings: SNU449 xenografts in NSG mice, 50 mg/kg twice weekly for five days, relative to PBS treated animals
Procedure: A SNU449 hepatocellular carcinoma xenograft tumor model was used to evaluate activity of modified oligonucleotides targeted to human Yap1. Ten million SNU449 cells in 30% matrigel were implanted subcutaneously into the flanks of female NOD Cg-Prkdcscid ll2rgtm1Wjl/SzJ (NSG) mice (from Jackson Laboratory) at 4-6 weeks of age. When tumors reached an average volume of 100 mm^3, approximately two weeks post-implantation, groups of four mice each were administered at 50 mg/kg twice weekly with modified oligonucleotides for five days. Tumors were collected and tested for Yap1 mRNA knockdown by RT-qPCR. Yap1 mRNA levels were measured as previously described using the Human Yap1 primer-probe set RTS4814. Yap1 mRNA levels were normalized to actin-beta content, as measured by primer probe set RTS5002. Results are presented in the tables below as percent control of the amount of Yap1 mRNA relative to PBS treated animals (% control).

[7] = Table 58, A-431 cells 10,000 cells per well
[8] = Table 61, A-431 cells 10,000 cells per well

958497 (kA*kT*kA*dT*dG*dG*dA*dA*dA*dT*dT*dG*dT*k[5mC]*kT*k[5mC]) [compound 958497]
ALT [1]: 46 U/L
AST [1]: 151 U/L
BUN [1]: 26 mg/dL
TBIL [1]: 0.24 mg/dL
Yap1 mRNA, % UTC ([2]; Table 58, 15.6 nM): 82 % UTC
Yap1 mRNA, % UTC ([2]; Table 58, 62.5 nM): 35 % UTC
Yap1 mRNA, % UTC ([2]; Table 58, 4000.00 nM): 3 % UTC
IC50 [2, 7]: 0.1 µM
Kidney weight [3]: 0.35 g
Liver weight [3]: 1.31 g
Spleen weight [3]: 0.11 g
body weight [3]: 23 g

958534 (kT*kT*k[5mC]*dA*dG*d[5mC]*dA*dT*dA*dG*dA*dA*dG*kT*kA*kG; antisense) [compound 958534]
ALT [1]: 1962 U/L
AST [1]: 1617 U/L
BUN [1]: 26 mg/dL
TBIL [1]: 0.33 mg/dL
Yap1 mRNA, % UTC ([2]; Table 61, 15.6 nM): 85 % UTC
Yap1 mRNA, % UTC ([2]; Table 61, 62.5 nM): 48 % UTC
Yap1 mRNA, % UTC ([2]; Table 61, 4000.00 nM): 9 % UTC
IC50 [2, 8]: 0.1 µM
Kidney weight [3]: 0.32 g
Liver weight [3]: 1.81 g
Spleen weight [3]: 0.09 g
body weight [3]: 22 g

958589 (kG*kT*kA*dA*dA*dG*dG*dA*dA*dG*dA*dT*d[5mC]*kT*k[5mC]*k[5mC]; antisense) [compound 958589]
ALT [1]: 35 U/L
AST [1]: 66 U/L
BUN [1]: 24 mg/dL
TBIL [1]: 0.21 mg/dL
Yap1 mRNA, % UTC ([2]; Table 61, 15.6 nM): 75 % UTC
Yap1 mRNA, % UTC ([2]; Table 61, 62.5 nM): 50 % UTC
Yap1 mRNA, % UTC ([2]; Table 61, 4000.00 nM): 8 % UTC
IC50 [2, 8]: 0.1 µM
Kidney weight [3]: 0.37 g
Liver weight [3]: 1.40 g
Spleen weight [3]: 0.10 g
body weight [3]: 25 g

958596 (kA*kG*k[5mC]*dA*dG*dT*dT*dA*dA*dG*d[5mC]*dA*d[5mC]*kT*kT*kT; antisense) [compound 958596]
ALT [1]: 207 U/L
AST [1]: 162 U/L
BUN [1]: 24 mg/dL
TBIL [1]: 0.23 mg/dL
Yap1 mRNA, % UTC ([2]; Table 56, 15.6 nM): 69 % UTC
Yap1 mRNA, % UTC ([2]; Table 56, 62.5 nM): 38 % UTC
Yap1 mRNA, % UTC ([2]; Table 56, 4000.00 nM): 7 % UTC
IC50 ([2]; Table 56, A-431 cells 10,000 cells per well): 0.04 µM
Kidney weight [3]: 0.36 g
Liver weight [3]: 2.11 g
Spleen weight [3]: 0.13 g
body weight [3]: 25 g

958622 (kG*kA*kT*dA*dT*dT*d[5mC]*d[5mC]*dG*d[5mC]*dA*dT*dT*kG*k[5mC]*k[5mC]; antisense) [compound 958622]
ALT [1]: 224 U/L
AST [1]: 254 U/L
BUN [1]: 23 mg/dL
TBIL [1]: 0.24 mg/dL
Yap1 mRNA, % UTC ([2]; Table 58, 15.6 nM): 79 % UTC
Yap1 mRNA, % UTC ([2]; Table 58, 62.5 nM): 50 % UTC
Yap1 mRNA, % UTC ([2]; Table 58, 4000.00 nM): 7 % UTC
IC50 [2, 7]: 0.1 µM
Kidney weight [3]: 0.33 g
Liver weight [3]: 0.92 g
Spleen weight [3]: 0.12 g
body weight [3]: 23 g

958739 (kA*kG*k[5mC]*dA*dA*dT*dA*dG*dA*dG*dT*dA*dA*k[5mC]*k[5mC]*kA; antisense) [compound 958739]
ALT [1]: 145 U/L
AST [1]: 186 U/L
BUN [1]: 21 mg/dL
TBIL [1]: 0.21 mg/dL
Yap1 mRNA, % UTC ([2]; Table 61, 15.6 nM): 77 % UTC
Yap1 mRNA, % UTC ([2]; Table 61, 62.5 nM): 46 % UTC
Yap1 mRNA, % UTC ([2]; Table 61, 4000.00 nM): 7 % UTC
IC50 [2, 8]: 0.1 µM
Kidney weight [3]: 0.36 g
Liver weight [3]: 1.58 g
Spleen weight [3]: 0.13 g
body weight [3]: 24 g

1074461 (kG*kA*kA*dA*dT*dT*dG*dT*d[5mC]*dT*d[5mC]*dA*dT*kG*k[5mC]*k[5mC]) [compound 1074461]
% UTC (Yap1 mRNA) ([4]; 31.3 nM): 76 % UTC
% UTC (Yap1 mRNA) ([4]; 125.0 nM): 37 % UTC
% UTC (Yap1 mRNA) ([4]; 500.0 nM): 15 % UTC
% UTC (Yap1 mRNA) ([4]; 2000.00 nM): 5 % UTC
IC50 [4]: 0.1 µM
ALB [5]: 2.2 g/dL
ALT [5]: 1563 U/L
AST [5]: 865 U/L

1197269 (kT*kA*kA*dA*mG*dT*dG*dT*dA*dT*dG*dT*d[5mC]*kA*kG*kA; antisense) [compound 1197269]
% UTC (Yap1 mRNA) ([4]; 31.3 nM): 48 % UTC
% UTC (Yap1 mRNA) ([4]; 125.0 nM): 21 % UTC
% UTC (Yap1 mRNA) ([4]; 500.0 nM): 7 % UTC
% UTC (Yap1 mRNA) ([4]; 2000.00 nM): 1 % UTC
IC50 [4]: < 0.03 µM
Yap1 mRNA in tumors, % control [6]: 57 % control

1198501 (kG*kA*dT*dT*dT*dA*dG*dG*dA*dT*dG*e[5mC]*kA*eT*kG*eG; antisense) [compound 1198501]
% UTC (Yap1 mRNA) ([4]; 31.3 nM): 65 % UTC
% UTC (Yap1 mRNA) ([4]; 125.0 nM): 36 % UTC
% UTC (Yap1 mRNA) ([4]; 500.0 nM): 17 % UTC
% UTC (Yap1 mRNA) ([4]; 2000.00 nM): 11 % UTC
IC50 [4]: 0.1 µM
Yap1 mRNA in tumors, % control [6]: 54 % control

1198641 (kA*kT*dT*dA*dG*dA*dG*dT*dA*dT*dG*dT*kG*eG*k[5mC]*eA; antisense) [compound 1198641]
% UTC (Yap1 mRNA) ([4]; 31.3 nM): 55 % UTC
% UTC (Yap1 mRNA) ([4]; 125.0 nM): 29 % UTC
% UTC (Yap1 mRNA) ([4]; 500.0 nM): 11 % UTC
% UTC (Yap1 mRNA) ([4]; 2000.00 nM): 3 % UTC
IC50 [4]: 0.03 µM
Yap1 mRNA in tumors, % control [6]: 68 % control

1198673 (kG*kA*dT*dT*dT*dA*dG*dG*dA*dT*dG*d[5mC]*kA*eT*kG*eG; antisense) [compound 1198673]
% UTC (Yap1 mRNA) ([4]; 31.3 nM): 51 % UTC
% UTC (Yap1 mRNA) ([4]; 125.0 nM): 26 % UTC
% UTC (Yap1 mRNA) ([4]; 500.0 nM): 8 % UTC
% UTC (Yap1 mRNA) ([4]; 2000.00 nM): 3 % UTC
IC50 [4]: < 0.03 µM
Yap1 mRNA in tumors, % control [6]: 52 % control
